Data published in US20220290106A1, “Method for Promoting Cell Proliferation, and Method for Preparing Cell Cluster” (Osaka University, priority 2019, published 2022).

Columns and labels:
MSC cell aggregates [1] = experiment: Test Example 7: aggregate culture 4 of MSCs (3-DG or GO); assay type: cell-based; details: for cell proliferation rate of the MSC cell aggregate: cells counted Day 4 (before treatment) and Day 9, 24 hours treatment, then 10 μM ROCK inhibitor medium; for cell proliferation rate, dependence on concentration: cells counted Day 4 and Day 9, increasing 3-DG/GO concentration; for periphery of the cell aggregate (effect of promoting cell proliferation): treatment time 24 hours from Day 4, then 10 μM ROCK inhibitor medium, Day 9 vs Day 4
Experimental: Test Example 7 was performed in the same manner as Test Example 6 (aggregate culture 3 of MSCs) except that the culture conditions were changed as follows.
(§1) Medium on Day 0: the above medium containing no ROCK inhibitor
Added reagent: 3-Deoxyglucosone (3-DG) (manufactured by Sigma-Aldrich) • Glyoxal Solution (GO) (manufactured by Sigma-Aldrich) Addition of 3-DG or GO: 3-DG or GO was added after the medium was replaced on the 4th day of culture (Day 4). 3-DG or GO treatment time: 24 hours Medium for replacement:
(§2) Day 2, 4: the above medium containing no ROCK inhibitor
(§3) Day 5, 7, 9: the above medium containing 10 μM ROCK inhibitor
Similarly to Test Example 4, the number of cells was counted on Day 4 (before the treatment) and on Day 9, and the cell proliferation rate was confirmed. As a result, the cell proliferation rate of the MSC cell aggregate was increased by culturing the MSC cell aggregate that had been treated with 3-DG or GO, like the MG treatment.

[2] = test system: iPS cell aggregates (iPSCs, D2 strain); experiment: Test Example 1: aggregate culture 1 of iPS cells; assay type: cell-based
Experimental: iPSC aggregates were cultured under the following culture conditions. FIGS. 1A and 1B show the results. Cell: iPSCs (D2 strain, Np43) Medium: StemFit (registered trademark) A[…] (manufactured by Takara Bio Inc.) Culture vessel: 96 well V-bottom plate (MS-9096V manufactured by Sumitomo Bakelite Co., Ltd.) Cell density: 1316 cells/cm^2 (5×10^2 cells/wells) Culture condition: 37° C., 5% CO2 incubator Amount of medium: 150 μl/well Culture period: 7 clays (Methylglyoxal was added once after the medium was replaced on the 4th day of culture (Day 4).) Medium on Day 0: the above medium containing 10 μM ROCK inhibitor Replacement of medium: 150 μl/well Medium for replacement: the above medium containing no ROCK inhibitor Added reagent: Methylglyoxal Solution (product code: […], 1.17 g/mL, 16.25 M, manufactured by Sigma-Aldrich) Methylglyoxal (MG) concentration: 0, 0.1, 1, 10, 100 mM Imaging: photomicrography on the 4th day of culture (Day 4) (before addition of MG) and the 5th, 6th, and 7th day of culture (Day 5, 6, 7) (after addition of MG) FIGS. 1A and 1B show an example of photomicrographs of iPS cell aggregates before the addition of MG (Day 4) and after the addition of MG (Day 5, 6, 7). FIG. 1B is a partially enlarged view of FIG. 1A

[3] = test system: iPS cell aggregates (iPSCs, D2 strain); experiment: Test Example 2: aggregate culture 2 of iPSCs (MG 20 minutes, then ROCK inhibitor medium); assay type: cell-based; details: MG 1.25-20 mM, treatment time 20 minutes on Day 4, then medium with 10 μM ROCK inhibitor; Day 10 vs Day 4
Experimental: Cell: iPSCs (D2 strain, Np17, feeder less) Medium: StemFit (registered trademark) A[…] (manufactured by Takara Bio Inc.) Culture vessel: 96 well V-bottom plate (MS-9096V manufactured by Sumitomo Bakelite Co., Ltd.) Cell density: 200 cells/well Culture condition: 37° C., 5% CO2 Amount of medium: 150 μl/well Culture period: 10 days and (subculture) 5 days (15 days in total) Medium on Day 0: the above medium containing 10 μM ROCK inhibitor Replacement of medium: 75 μl/well (daily) Medium for replacement: Day 4 to 10: the above medium containing 10 μM ROCK inhibitor Day 1 to 3: the above medium containing no ROCK inhibitor Methylglyoxal concentration: 0, 1.25, 2.5, 5, 10, 15, 20 mM Added reagent: Methylglyoxal Solution (product code: […], 1.17 g/mL, 16.25 M, manufactured by Sigma-Aldrich) Addition of MG: MG was added 20 minutes before the medium was replaced on the 4th day of culture (Day 4). MG treatment time: 20 minutes Imaging: video observation with BicStudio (manufactured by NIKON ENGINEERING CO., LTD.) after addition of MG

[4] = test system: iPS cell aggregates (iPSCs, D2 strain); experiment: Test Example 3: aggregate culture 3 of iPSCs (MG 24 hours, then ROCK inhibitor medium); assay type: cell-based; details: MG 1.25-20 mM, treatment time 24 hours from Day 4, then medium with 10 μM ROCK inhibitor; Day 10 vs Day 4
Experimental: Test Example 3 was performed in the same manner as Test Example 2 (aggregate culture 2 of iPSCs) except that the culture conditions were changed as follows and the procedures shown in FIG. 3 were used. […] Addition of MG: MG was added after the medium was replaced on the 4th day of culture (Day 4). MG treatment time: 24 hours Medium for replacement: Day 4 to 10: the above medium containing 10 μM ROCK inhibitor Day 1 to 3: the above medium containing no ROCK inhibitor

MSC aggregates = experiment: Test Example 4: aggregate culture 1 of mesenchymal stem cells, cell proliferation rate; assay type: cell-based
Experimental: MSC aggregates were cultured under the following culture conditions. The number of cells was counted on Day 4 (before the addition of MG) and on Day 9. Using the resulting number of cells, the cell proliferation rate was obtained from the following formula.
Medium: Mesenchymal Stem Cell Growth Medium 2 (manufactured by Takara Bio Inc.) Culture vessel: Micro-Space Cell Culture Plate (manufactured by Kuraray Co., Ltd), 24 well plate (manufactured by Corning) Culture condition: 37° C., 5% CO2 incubator Amount of medium: 3 mL/well Seeding density: 1.0×10^5 cell/well Culture period: 9 days
as §1
Replacement of medium: 1.5 mL/well×3, once every two days (Day 5, 7, 9) Medium for replacement:
as §2, §3
Added reagent: Methylglyoxal Solution (product code: M0252, 1.17 g/mL, 16.25 M, manufactured by Sigma-Aldrich) Methylglyoxal concentration: 0, 0.0075, 0.01, 0.0125, 0.015, 0.02 mM Addition of MG: MG was added after the medium was replaced on the 4th day of culture (Day 4). MG treatment time: 24 hours
Cell proliferation rate=(the number of cells on Day 9)/(the number of cells on […])

MSCs (monolayer culture) = experiment: Monolayer culture of MSCs under the conditions of Test Example 4; assay type: cell-based; details: monolayer culture instead of aggregate culture; presence or absence of MG and ROCK inhibitor
Experimental: Next, MSCs were cultured under the culture conditions of Test Example 4 except that the MSCs were subjected to monolayer culture instead of aggregate culture.

MSC cell aggregates [5] = experiment: Test Example 5: aggregate culture 2 of MSCs (MG 20 minutes); assay type: cell-based; details: MG 1.25-20 mM, treatment time 20 minutes on Day 4, then 10 μM ROCK inhibitor medium; Day 15 vs Day 4
Experimental: MSC aggregates were cultured under the following culture conditions. […] Medium: Mesenchymal Stem Cell Growth Medium 2 (manufactured by Takara Bio Inc.) Culture vessel: Micro-Space Cell Culture Plate (manufactured by Kuraray Co., Ltd), 24 well plate (manufactured by Corning) Culture condition: 37° C., 5% CO2 incubator Amount of medium: 3 mL/well Seeding density: 1.0×10^5 cell/well Culture period: 15 days Medium on Day 0: the above medium containing no ROCK inhibitor Replacement of medium: 1.5 mL/well×3, once every two days Medium for replacement: Day 2: the above medium containing no ROCK inhibitor Day 4, 6, 8, 10, 12, 14: the above medium containing 10 μM ROCK inhibitor Added reagent: Methylglyoxal Solution (product code: […], 1.17 g/mL, 16.25 M, manufactured by Sigma-Aldrich) Methylglyoxal concentration: 0, 1.25, 2.5, 5, 10, 15, 20 mM Addition of MG: MG was added 20 minutes before the medium was replaced on the 4th day of culture (Day 4). MG treatment time: 20 minutes Imaging: Day 4 (before addition of MG) and Day 15

MSC cell aggregates [6] = experiment: Test Example 6: aggregate culture 3 of MSCs (MG 24 hours); assay type: cell-based; details: MG 1.25-20 mM, treatment time 24 hours from Day 4, then 10 μM ROCK inhibitor medium; Day 15 vs Day 4
Experimental: Test Example 6 was performed in the same manner as Test Example 5 (aggregate culture 2 of MSCs) except that the culture conditions were changed as follows. […] Addition of MG: MG was added after the medium was replaced on the 4th day of culture (Day 4). MG treatment time: 24 hours Medium for replacement: Day 2, 4: the above medium containing no ROCK inhibitor Day 5, 7, 9, 11, 13, 15: the above medium containing 10 μM ROCK inhibitor

HepG2 aggregates = experiment: Test Example 8: aggregate culture of HepG2; assay type: cell-based, Human; details: MG 1-20 mM for 24 hours from Day 3, then 10 μM ROCK inhibitor medium
Experimental: HepG2 aggregates were cultured under the following culture conditions. The number of cells was counted on Day 3 (before the addition of MG) and on Day 4, and the cell proliferation rate was confirmed.
Medium: HepG2 Hepatocellular Carcinoma Expansion Media, Human (Cellular Engineering Technologies)
Culture vessel: 24 well plate (manufactured by Coming) Culture condition: 37° C., 5% CO2 incubator Amount of medium: 0.5 mL/well Culture period: 6 days
as §1
Day 2, 3: the above medium containing no ROCK inhibitor
Day 4, 6: the above medium containing 10 μM ROCK inhibitor
Seeding density: 1.0×10^4 cells/cm^2 Replacement of medium: 0.5 mL/well, once every two days Added reagent: Methylglyoxal Solution (manufactured by Sigma-Aldrich) Methylglyoxal concentration: 0, 1, 5, 10, 15, 20 mM Addition of MG: MG was added after the medium was replaced on the 3rd day of culture (Day 3). MG treatment time: 24 hours

Row | Compound | cell proliferation rate of the MSC cell aggregate (MSC cell aggregates [1]) | cell proliferation rate, dependence on concentration (MSC cell aggregates [1]) | periphery of the cell aggregate (effect of promoting cell proliferation) (MSC cell aggregates [1]) | cell binding properties in the periphery of the cell aggregate, dependence on MG concentration ([2]; MG 0.1, 1, 10, 100 mM) | cell binding properties in the periphery of the cell aggregate ([2]; MG 0.1-100 mM added once on Day 4, compared to control not treated with MG) | periphery (outer circumferential portion) of the cell aggregate, fibrillation state ([2]; MG 0.1-100 mM added once on Day 4, photomicrographs Day 5, 6, 7, compared to control not treated with MG) | periphery of the cell aggregate (effect of promoting cell proliferation) [3] | periphery of the cell aggregate (effect of promoting cell proliferation) [4] | cell proliferation rate (MSC aggregates; MG 0.0075-0.02 mM for 24 hours from Day 4, then 10 μM ROCK inhibitor medium, cell count Day 9, without MG (0 mM) 1.2 times) | cell proliferation rate, medium containing ROCK inhibitor versus medium containing no ROCK inhibitor (MSC aggregates; combination of MG and 10 μM ROCK inhibitor compared with MG without ROCK inhibitor) | cell proliferation rate (MSCs (monolayer culture)) | periphery of the cell aggregate (effect of promoting cell proliferation) (MSC cell aggregates [5]) | periphery of the cell aggregate (effect of promoting cell proliferation) (MSC cell aggregates [6]) | periphery of the cell aggregate (effect of promoting cell proliferation) (HepG2 aggregates)
1 | O=CC=O [GO, glyoxal] | increased | tended to be higher with an increase in the 3-DG/GO concentration | expand slightly | – | – | – | – | – | – | – | – | – | – | –
2 | CC(=O)C=O [MG, methylglyoxal] | – | – | – | tended to be further reduced with an increase in the MG concentration | reduced | became non-fibrillated (unraveled) | expand slightly | expand slightly | nearly doubled | higher | did not change significantly | expand slightly | expand slightly | expand slightly
3 | O=CC(=O)C[C@H](O)[C@H](O)CO [3-DG, 3-Deoxyglucosone] | increased | tended to be higher with an increase in the 3-DG/GO concentration | expand slightly | – | – | – | – | – | – | – | – | – | – | –
